Drawing on patent publication US11098032B2, “Pyran dervatives as CYP11A1 (cytochrome P450 monooxygenase 11A1) inhibitors” (ORION CORPORATION, priority 2016, dated 2021), this text covers IC50 for 33 compounds.

Broadly, the IC50 is the midpoint of a concentration-inhibition curve.

Where only a bound is given, the exact number is not on record here.

For this assay, the target named is T1, CYP11A1 (Homo sapiens, UniProt P05108).
T1 construct: human H295R adrenocortical carcinoma cell line was used as source of enzyme; endogenous in cells; host or cells: H295R human adrenocortical carcinoma cells
T1 sequence (P05108 40-521): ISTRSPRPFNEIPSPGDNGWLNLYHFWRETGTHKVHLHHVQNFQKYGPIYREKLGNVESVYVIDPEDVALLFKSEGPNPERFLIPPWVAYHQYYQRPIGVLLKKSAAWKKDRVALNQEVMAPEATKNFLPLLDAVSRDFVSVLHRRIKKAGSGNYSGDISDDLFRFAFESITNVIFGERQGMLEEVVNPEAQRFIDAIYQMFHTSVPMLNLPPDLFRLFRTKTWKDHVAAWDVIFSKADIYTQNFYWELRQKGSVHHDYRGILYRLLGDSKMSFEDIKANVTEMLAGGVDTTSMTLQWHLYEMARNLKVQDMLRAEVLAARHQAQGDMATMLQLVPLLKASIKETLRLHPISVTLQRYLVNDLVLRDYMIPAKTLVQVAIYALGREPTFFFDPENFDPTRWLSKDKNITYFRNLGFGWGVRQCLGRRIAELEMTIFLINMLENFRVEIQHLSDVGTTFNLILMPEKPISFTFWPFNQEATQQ
Kind of assay: CYP11A1 inhibition: modified isocaproic acid release assay (IARA) in H295R cells. Type of assay: cell-based. The settings on record: human H295R adrenocortical carcinoma cells treated three days, 3 nM [24,25-3H]-labelled cholesterol, 1% DMSO, 10 concentrations in duplicates; read-out: IC50 of the test compounds on CYP11A1 inhibition. The method in brief:
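Cholesterol side-chain cleavage followed as tritiated isocaproic acid in charcoal-extracted medium, counted by scintillation. Substrate was 3 nM [24,25-3H]-cholesterol on human H295R cells exposed for three days to ten compound concentrations (duplicates, 1% DMSO); IC50 derived.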
Turning to `CS(=O)(=O)N1CCC(COc2coc(CN3Cc4ccc(Cl)cc4C3)cc2=O)CC1` [Compound 241, 2-((5-Chloroisoindolin-2-yl)methyl)-5-((1-(methylsulfonyl)piperidin-4-yl)-methoxy)-4H-pyran-4-one], the IC50 is 150 to 300 nM. The result for `CC(C)NC(=O)c1ccc(COc2coc(CN3Cc4ccccc4C3)cc2=O)cc1` [Compound 140, 4-(((6-(Isoindolin-2-ylmethyl)-4-oxo-4H-pyran-3-yl)oxy)methyl)-N-isopropylbenzamide] reads 150 to 300 nM.

In the case of `CS(=N)(=O)c1ccc(COc2coc(CN3CCc4ccccc4C3)cc2=O)cc1` (stereo not drawn) [Compound 87, 2-((3,4-Dihydroisoquinolin-2(1H)-yl)methyl)-5-((4-(S-methylsulfonimidoyl)-benzyl)oxy)-4H-pyran-4-one], the IC50 was in the range of 301 to 2000 nM. The result for `O=C(COc1coc(CN2Cc3ccccc3C2)cc1=O)N1CCN(Cc2ccccc2)CC1` [Compound 153, 5-(2-(4-Benzylpiperazin-1-yl)-2-oxoethoxy)-2-(isoindolin-2-ylmethyl)-4H-pyran-4-one] reads 301 to 2000 nM; that for `O=C(C1CC1)N1CCC(COc2coc(CN3Cc4ccccc4C3)cc2=O)CC1` [Compound 226, 5-((1-(Cyclopropanecarbonyl)piperidin-4-yl)methoxy)-2-(isoindolin-2-ylmethyl)-4H-pyran-4-one], below 150 nM. The result for `O=c1cc(CN2Cc3ccccc3C2)occ1OCc1ccc(S(=O)(=O)N2CCOCC2)cc1` [Compound 6, 2-(Isoindolin-2-ylmethyl)-5-((4-(morpholinosulfonyl)benzyl)oxy)-4H-pyran-4-one] reads 150 to 300 nM. Under `O=C(c1ccc(COc2coc(CN3Cc4ccccc4C3)cc2=O)cc1)N1CCCCC1` [Compound 128, 2-(Isoindolin-2-ylmethyl)-5-((4-(piperidine-1-carbonyl)benzyl)oxy)-4H-pyran-4-one] stands 150 to 300 nM; under `CCCCNC(=O)c1ccc(COc2coc(CN3Cc4ccccc4C3)cc2=O)cc1` [Compound 169, N-Butyl-4-(((6-(isoindolin-2-ylmethyl)-4-oxo-4H-pyran-3-yl)oxy)methyl)-benzamide], 150 to 300 nM. For the compound `O=c1cc(CN2Cc3ccccc3C2)occ1OCC1CCOCC1` [Compound 67, 2-(Isoindolin-2-ylmethyl)-5-((tetrahydro-2H-pyran-4-yl)methoxy)-4H-pyran-4-one], the IC50 was 150 to 300 nM. The result for `CCOC(=O)c1cnn(-c2ccc(COc3coc(CN4Cc5ccccc5C4)cc3=O)cc2)c1` [Compound 40, Ethyl 1-(4-(((6-(isoindolin-2-ylmethyl)-4-oxo-4H-pyran-3-yl)oxy)methyl)phenyl)-1H-pyrazole-4-carboxylate] reads 301 to 2000 nM; that for `CSc1ccc2c(c1)CN(Cc1cc(=O)c(OCC3CCN(S(C)(=O)=O)CC3)co1)C2` [Compound 208, 5-((1-(Methylsulfonyl)piperidin-4-yl)methoxy)-2-((5-(methylthio)isoindolin-2-yl)methyl)-4H-pyran-4-one], 150 to 300 nM; that for `COc1ccc2c(c1)CN(Cc1cc(=O)c(OCc3ccc(C(=O)N(C)C)cc3)co1)C2` [Compound 138, 4-(((6-((5-Methoxyisoindolin-2-yl)methyl)-4-oxo-4H-pyran-3-yl)oxy)methyl)-N,N-dimethylbenzamide], below 150 nM. As to `CC(=O)NC(C)(C)c1ccc(COc2coc(CN3Cc4ccccc4C3)cc2=O)cc1` [Compound 69, N-(2-(4-(((6-(Isoindolin-2-ylmethyl)-4-oxo-4H-pyran-3-yl)oxy)methyl)phenyl)-propan-2-yl)acetamide], the concentration for half-maximal inhibition (IC50) was in the range of 150 to 300 nM.

For `COC(=O)/C=C/c1ccc(COc2coc(CN3Cc4ccccc4C3)cc2=O)cc1` [Compound 2, Methyl (E)-3-(4-(((6-(isoindolin-2-ylmethyl)-4-oxo-4H-pyran-3-yl)oxy)-methyl)phenyl)acrylate], the IC50 was below 150 nM. The result for `CS(=N)c1ccc(COc2coc(CN3Cc4ccccc4C3)cc2=O)cc1` (stereo not drawn) [Compound 85, 2-(Isoindolin-2-ylmethyl)-5-((4-(S-methylsulfinimidoyl)benzyl)oxy)-4H-pyran-4-one] reads 150 to 300 nM; that for `CS(=N)(=O)c1ccc(COc2coc(CN3Cc4ccc(F)cc4C3)cc2=O)cc1` (stereo not drawn) [Compound 88, 2-((5-Fluoroisoindolin-2-yl)methyl)-5-((4-(S-methylsulfonimidoyl)benzyl)oxy)-4H-pyran-4-one], 150 to 300 nM.

With `N=S(=O)(c1ccc(COc2coc(CN3Cc4ccccc4C3)cc2=O)cc1)C1CCC1` (stereo not drawn) [Compound 71, 5-((4-(Cyclobutanesulfonimidoyl)benzyl)oxy)-2-(isoindolin-2-ylmethyl)-4H-pyran-4-one], the IC50 is below 150 nM. The result for `O=C(c1ccc(COc2coc(CN3Cc4ccccc4C3)cc2=O)cc1)N1CC(F)(F)C1` [Compound 158, 5-((4-(3,3-Difluoroazetidine-1-carbonyl)benzyl)oxy)-2-(isoindolin-2-ylmethyl)-4H-pyran-4-one] reads 150 to 300 nM.

Take `N#Cc1ccc(COc2coc(CN3Cc4ccccc4C3)cc2=O)cc1` [Compound 45, 4-(((6-(Isoindolin-2-ylmethyl)-4-oxo-4H-pyran-3-yl)oxy)methyl)benzonitrile]: the half-maximal inhibitory concentration (IC50) lay in the range of 301 to 2000 nM.

Regarding `O=c1cc(CN2Cc3ccccc3C2)occ1OCc1ccc(-c2ccccc2)cc1` [Compound 164, 5-([1,1′-Biphenyl]-4-ylmethoxy)-2-(isoindolin-2-ylmethyl)-4H-pyran-4-one], the IC50 is 150 to 300 nM. Under `CS(=O)(=O)NCC1CCC(COc2coc(CN3Cc4ccccc4C3)cc2=O)CC1` (stereo not drawn) [Compound 173, N-((4-(((6-(Isoindolin-2-ylmethyl)-4-oxo-4H-pyran-3-yl)oxy)methyl)cyclohexyl)-methyl)methanesulfonamide] stands below 150 nM; under `CN(C)C(=O)c1ccc(COc2coc(CN3Cc4ccccc4C3)cc2=O)c(F)c1` [Compound 61, 3-Fluoro-4-(((6-(isoindolin-2-ylmethyl)-4-oxo-4H-pyran-3-yl)oxy)methyl)-N,N-dimethylbenzamide], 150 to 300 nM. Under `CS(=N)c1ccc(COc2coc(CN3Cc4ccc(C(F)(F)F)cc4C3)cc2=O)cc1` (stereo not drawn) [Compound 74, 5-((4-(S-methylsulfinimidoyl)benzyl)oxy)-2-((5-(trifluoromethyl)isoindolin-2-yl)methyl)-4H-pyran-4-one] stands below 150 nM.

In the case of `C=Cc1ccc(COc2coc(CN3Cc4ccccc4C3)cc2=O)cc1` [Compound 144, 2-(Isoindolin-2-ylmethyl)-5-((4-vinylbenzyl)oxy)-4H-pyran-4-one], the IC50 is 301 to 2000 nM. Turning to `O=c1cc(CN2Cc3ccccc3C2)occ1OC[C@H]1CC[C@H](N2CCCS2(=O)=O)CC1` [Compound 216, 5-(((1r,4r)-4-(1,1-Dioxidoisothiazolidin-2-yl)cyclohexyl)methoxy)-2-(isoindolin-2-ylmethyl)-4H-pyran-4-one], the half-maximal inhibitory concentration (IC50) was below 150 nM. The result for `CS(=O)(=O)N1CCC(COc2coc(Cn3cc4ccc(C(F)(F)F)cc4c3)cc2=O)CC1` [Compound 287, 5-((1-(Methylsulfonyl)piperidin-4-yl)methoxy)-2-((5-(trifluoromethyl)-2H-isoindol-2-yl)methyl)-4H-pyran-4-one] reads 301 to 2000 nM. The result for `Nc1cccc(COc2coc(CN3Cc4ccccc4C3)cc2=O)c1` [Compound 263, 5-((3-Aminobenzyl)oxy)-2-(isoindolin-2-ylmethyl)-4H-pyran-4-one] reads 301 to 2000 nM.

As for `COCCN(C)S(=O)(=O)c1ccc(COc2coc(CN3Cc4ccccc4C3)cc2=O)cc1` [Compound 20, 4-(((6-(Isoindolin-2-ylmethyl)-4-oxo-4H-pyran-3-yl)oxy)methyl)-N-(2-methoxyethyl)-N-methylbenzenesulfonamide], the IC50 was 150 to 300 nM. The result for `CC(=O)N=S(C)(=O)c1ccc(COc2coc(CN3Cc4ccccc4C3)cc2=O)cc1` (stereo not drawn) [Compound 94, N-{[4-({[6-(1,3-dihydro-2H-isoindol-2-ylmethyl)-4-oxo-4H-pyran-3-yl]oxy}-methyl)phenyl](methyl)oxido-λ^6-sulfanylidene}] reads 150 to 300 nM; that for `CN1Cc2cc(COc3coc(CN4Cc5ccccc5C4)cc3=O)ccc2C1=O` [Compound 106, 5-(((6-(Isoindolin-2-ylmethyl)-4-oxo-4H-pyran-3-yl)oxy)methyl)-2-methyl-isoindolin-1-one], 301 to 2000 nM; that for `CS(=O)(=O)c1ccc(COc2coc(CN3Cc4ccccc4C3)cc2=O)c(Cl)c1` [Compound 16, 5-((2-Chloro-4-(methylsulfonyl)benzyl)oxy)-2-(isoindolin-2-ylmethyl)-4H-pyran-4-one], 301 to 2000 nM.

With `CC(C)(O)c1ccc(COc2coc(CN3Cc4cccc(F)c4C3)cc2=O)cc1` [Compound 33, 2-((4-Fluoroisoindolin-2-yl)methyl)-5-((4-(2-hydroxypropan-2-yl)benzyl)oxy)-4H-pyran-4-one], the IC50 is 301 to 2000 nM. Under `CC(C)S(=O)(=O)c1ccc(COc2coc(CN3Cc4ccccc4C3)cc2=O)cc1` [Compound 25, 2-(Isoindolin-2-ylmethyl)-5-((4-(isopropylsulfonyl)benzyl)oxy)-4H-pyran-4-one] stands 150 to 300 nM.
